This is an account of results in patent publication US7585859B2, “PDE4B inhibitors and uses therefor” (Plexxikon, Inc., priority 2004, dated 2009).

Assay type in all cases: biochemical
Assay [1] addresses T1, full-length human PDE4B2 isozyme (Homo sapiens, UniProt Q07343).
T1 construct: The full-length human PDE4B2 isozyme; His6 (N); TEV cleavage site (N); made in house; host or cells: baculovirus infected insect cells (unpurified lysate)
Briefly: PDE4 IC50 determination by Scintillation Proximity Assay, PDE4B2. The method in brief: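 Unpurified His6-TEV-tagged full-length human PDE4B2 from baculovirus-infected insect cell lysate (2.5 μl of 50% glycerol stock/ml) hydrolysed [3H]cAMP in 50 mM Tris pH 7.5, 8.3 mM MgCl, 1.7 mM EGTA, 0.01% BSA for 30 min at 30°. Stopped with SPA beads in 18 mM ZnSO4; [3H]AMP scintillation counted, IC50 by non-linear regression.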

Another assay deals with T2, PDE4D (Homo sapiens, UniProt Q08499).
T2 construct: PDE4D: The catalytic domain of human PDE4B from S3 16-V692; His6 (N); thrombin cleavage site (N); made in house; host or cells: E. coli
T2 sequence (Q08499 380-756): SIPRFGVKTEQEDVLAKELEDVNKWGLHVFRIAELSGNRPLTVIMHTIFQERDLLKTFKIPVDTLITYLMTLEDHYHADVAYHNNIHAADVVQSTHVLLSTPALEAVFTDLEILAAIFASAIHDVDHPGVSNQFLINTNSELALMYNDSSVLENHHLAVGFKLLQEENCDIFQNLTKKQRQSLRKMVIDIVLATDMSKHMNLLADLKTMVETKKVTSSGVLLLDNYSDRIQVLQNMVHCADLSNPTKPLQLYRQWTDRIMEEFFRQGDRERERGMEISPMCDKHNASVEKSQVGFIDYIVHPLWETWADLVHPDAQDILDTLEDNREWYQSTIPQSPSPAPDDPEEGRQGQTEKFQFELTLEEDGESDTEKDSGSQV
Briefly: PDE4 IC50 determination by Scintillation Proximity Assay, PDE4D. The gist of the method:
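Scintillation counts reflected [^3H]AMP captured on yttrium silicate SPA beads after enzyme hydrolysed [^3H]cAMP for 30 min at 30°. PDE4B was used at 80 ng/ml and PDE4D at 4 ng/ml. IC50 values came from non-linear regression.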
(In general: Scintillation proximity formats need no separation of bound from free tracer.)

Assay [2] has as its target T3, full-length human PDE4D5 isozyme (Homo sapiens, UniProt Q08499).
T3 construct: The full-length human PDE4D5 isozyme; His6 (N); TEV cleavage site (N); made in house; host or cells: baculovirus infected insect cells (unpurified lysate)
Briefly: PDE4 IC50 determination by Scintillation Proximity Assay, PDE4D5. The gist of the method: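 Unpurified His6-tagged full-length human PDE4D5 from baculovirus-infected insect cell lysate, 0.083 μl glycerol stock/ml, hydrolysed [3H]cAMP in Tris pH 7.5/MgCl/EGTA buffer, 30 min at 30°. ZnSO4/SPA beads stop; [3H]AMP counted. Controls: DMSO and roflumilast; 11-point duplicate curves, nonlinear-regression IC50.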

Setting [3] is: Table 1B, Formula I compounds, read-out: IC50 PDE4B2.
Where [4] appears, read: Table 1B, Formula I compounds, read-out: IC50 PDE4D.
[5] abbreviates: Table 1B, Formula I compounds, read-out: IC50 PDE4D5.
The mark [6] stands for this setting: second part of Table 2B (2-23 to 2-103), column 4, column is PDE4B2 in first part, read-out: IC 50 vs. indicated assay h TNFα.
Where [7] appears, read: second part of Table 2B (2-23 to 2-103), column 5, column is PDE4D in first part, read-out: IC 50 vs. indicated assay h TNFα.

Where two headings read alike, the source gives them in different places.

T3 sequence (Q08499 1-745 isoform Q08499-6): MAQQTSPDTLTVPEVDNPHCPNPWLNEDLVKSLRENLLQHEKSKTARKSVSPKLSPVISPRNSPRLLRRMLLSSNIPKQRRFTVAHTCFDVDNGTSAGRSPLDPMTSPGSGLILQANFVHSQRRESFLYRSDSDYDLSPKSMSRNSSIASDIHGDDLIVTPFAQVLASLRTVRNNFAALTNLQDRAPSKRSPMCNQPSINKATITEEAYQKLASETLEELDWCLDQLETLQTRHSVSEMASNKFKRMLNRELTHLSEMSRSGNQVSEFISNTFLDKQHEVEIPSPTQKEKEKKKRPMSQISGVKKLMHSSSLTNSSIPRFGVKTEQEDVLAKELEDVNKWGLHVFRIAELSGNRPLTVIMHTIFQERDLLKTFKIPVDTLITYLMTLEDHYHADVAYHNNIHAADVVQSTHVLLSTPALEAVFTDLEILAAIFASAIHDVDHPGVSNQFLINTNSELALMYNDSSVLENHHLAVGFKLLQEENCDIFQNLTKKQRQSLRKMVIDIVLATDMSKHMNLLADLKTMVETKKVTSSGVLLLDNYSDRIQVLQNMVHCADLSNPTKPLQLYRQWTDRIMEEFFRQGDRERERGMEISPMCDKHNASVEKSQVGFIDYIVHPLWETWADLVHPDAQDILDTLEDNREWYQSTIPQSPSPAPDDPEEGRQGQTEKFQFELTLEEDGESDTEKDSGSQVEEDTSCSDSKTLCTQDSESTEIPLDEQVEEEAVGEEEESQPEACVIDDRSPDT
T1 sequence (Q07343 1-564 isoform Q07343-2): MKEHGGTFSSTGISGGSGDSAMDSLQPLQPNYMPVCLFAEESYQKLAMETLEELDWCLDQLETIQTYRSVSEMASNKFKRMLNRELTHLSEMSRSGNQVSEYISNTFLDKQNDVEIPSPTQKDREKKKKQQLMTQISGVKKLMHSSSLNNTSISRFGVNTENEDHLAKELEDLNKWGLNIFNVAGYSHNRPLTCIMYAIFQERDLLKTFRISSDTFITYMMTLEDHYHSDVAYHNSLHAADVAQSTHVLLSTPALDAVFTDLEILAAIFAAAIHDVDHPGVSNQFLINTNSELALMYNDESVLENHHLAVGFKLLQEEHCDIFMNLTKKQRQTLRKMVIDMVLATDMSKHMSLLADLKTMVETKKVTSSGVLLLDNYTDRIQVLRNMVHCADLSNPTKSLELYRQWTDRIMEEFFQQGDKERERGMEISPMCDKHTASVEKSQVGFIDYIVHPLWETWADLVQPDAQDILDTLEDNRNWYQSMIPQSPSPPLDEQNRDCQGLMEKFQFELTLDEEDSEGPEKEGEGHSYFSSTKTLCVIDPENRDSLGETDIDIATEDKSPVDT

On to `N#Cc1c(Nc2ccccc2)sc(C(=O)C2CC2)c1N` [Compound 1-28, 4-Amino-5-cyclopropanecarbonyl-2-phenylamino-thiophene-3-carbonitrile], for which the IC50 (in assay [1] (setting [3]); on PDE4D (setting [4]); in assay [2] (setting [5])) was less than 10 µM throughout.

For `COc1ccc(C(=O)c2sc(Nc3ccccc3)c(C#N)c2N)cc1` [Compound 1-31], the IC50 (in assay [1] (setting [3]); on PDE4D (setting [4]); in assay [2] (setting [5])) was less than 10 µM in each case.

For `CCOC(=O)c1c(NC2CCCC2)sc(C(=O)c2ccc(OC)cc2)c1N` [Compound 1-191, 4-Amino-2-cyclopentylamino-5-(4-methoxy-benzoyl)-thiophene-3-carboxylic acid ethyl ester], the IC50 (in assay [1] (setting [3]); at PDE4D (setting [4]); in assay [2] (setting [5])) was less than 10 µM each time.

As for `N#Cc1c(Nc2ccccc2)sc(C(=O)c2cc(-c3ccccc3)no2)c1N` [Compound 1-192, 4-Amino-2-phenylamino-5-(3-phenyl-isoxazole-5-carbonyl)-thiophene-3-carbonitrile], the IC50 (in assay [1] (setting [3]); on PDE4D (setting [4]); in assay [2] (setting [5])) was less than 10 µM throughout.

With `CC(C)Nc1sc(C(=O)c2cc(-c3ccccc3)no2)c(N)c1C#N` [Compound 1-205, 4-Amino-2-isopropylamino-5-(3-phenyl-isoxazole-5-carbonyl)-thiophene-3-carbonitrile], the figures for the IC50 (in assay [1] (setting [3]); at PDE4D (setting [4])) were more than 10 µM and less than 10 µM, respectively.

On to `CC(C)Nc1sc(C(=O)c2cc(-c3ccc(Cl)cc3)no2)c(N)c1C#N` [Compound 1-212, 4-Amino-5-[3-(4-chloro-phenyl)-isoxazole-5-carbonyl]-2-isopropylamino-thiophene-3-carbonitrile], for which the IC50 in assay [1] (setting [3]) is less than 10 µM; at PDE4D (setting [4]), more than 10 µM; in assay [2] (setting [5]), more than 10 µM.

As for `CC(C)CNc1sc(C(=O)c2cc(-c3ccccc3)no2)c(N)c1C(N)=O` [Compound 1-236, 4-Amino-2-isobutylamino-5-(3-phenyl-isoxazole-5-carbonyl)-thiophene-3-carboxylic acid amide], the IC50 (in assay [1] (setting [3]); at PDE4D (setting [4]); in assay [2] (setting [5])) was less than 10 µM each time.

As to `NC(=O)c1c(NC2CCCC2)sc(C(=O)c2cc(-c3ccccc3)no2)c1N` [Compound 1-251, 4-Amino-2-cyclopentylamino-5-(3-phenyl-isoxazole-5-carbonyl)-thiophene-3-carboxylic acid amide], the IC50 (in assay [1] (setting [3]); at PDE4D (setting [4]); in assay [2] (setting [5])) was less than 10 µM throughout.

Take `Nc1nc(Nc2ccccc2F)sc1C(=O)c1cc(-c2ccccc2)no1` [Compound 2-6, [4-Amino-2-(2-fluoro-phenylamino)-thiazol-5-yl]-(3-phenyl-isoxazol-5-yl)-methanone]: the IC50 in assay [1] (first part of Table 2B (2-1 to 2-22), read-out: IC 50 vs. indicated assay PDE4B2) was less than 10 µM; on PDE4D (first part of Table 2B (2-1 to 2-22), read-out: IC 50 vs. indicated assay PDE4D), less than 10 µM; in assay [2] (first part of Table 2B (2-1 to 2-22), read-out: IC 50 vs. indicated assay PDE4D5), less than 10 µM.

Regarding `Nc1nc(Nc2ccc(Cl)cc2)sc1C(=O)c1cccc(C(F)(F)F)c1` [Compound 2-23, [4-Amino-2-(4-chloro-phenylamino)-thiazol-5-yl]-(3-trifluoromethyl-phenyl)-methanone], the IC50 (in assay [1] (setting [6]); at PDE4D (setting [7])) was less than 10 µM throughout.

On to `Nc1nc(NC2CCCC2)sc1C(=O)c1cccc(Cl)c1` [Compound 2-80, (4-Amino-2-cyclopentylamino-thiazol-5-yl)-(3-chloro-phenyl)-methanone], for which the IC50 (in assay [1] (setting [6]); at PDE4D (setting [7])) was less than 10 µM in each case.
